Assay results: the supplement of paper PMC10307832

What was measured:
Experiment in all cases: relative viability (nuclei count vs DMSO), 5 days (fraction); higher = more cells survive
Metformin + Tozasertib = compound: CN(C)C(=N)NC(=N)N [Metformin] + Cc1cc(Nc2cc(N3CCN(C)CC3)nc(Sc3ccc(NC(=O)C4CC4)cc3)n2)n[nH]1 [Tozasertib] (partner 0.1 µM)
How it was run: (§1)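 Nuclei were stained with Hoechst during a one-step fixation (final 0.05% Triton X-100, 1% formaldehyde, 1 ug/ml Hoechst) carried out 5 days after dosing, then counted on 4× images. The cells, lung cancer lines in 1536-well plates, had been dosed by pin tool the day after seeding with one drug alone or a fixed anchor-drug dose plus five library-drug doses (not always all listed) in √10 steps. Relative viability is the nuclei count in treated wells divided by that in vehicle wells, and each value is the median of duplicate plates.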

Metformin + AZD7762 = compound: CN(C)C(=N)NC(=N)N [Metformin] + NC(=O)Nc1cc(-c2cccc(F)c2)sc1C(=O)N[C@H]1CCCNC1 [AZD7762] (partner 0.2 µM)
How it was run: as §1

Metformin + Pemetrexed = compound: CN(C)C(=N)NC(=N)N [Metformin] + Nc1nc2[nH]cc(CCc3ccc(C(=O)N[C@@H](CCC(=O)O)C(=O)O)cc3)c2c(=O)[nH]1 [Pemetrexed] (partner 0.2 µM)
How it was run: as §1

Apatinib + Phenformin = compound: N#CC1(c2ccc(NC(=O)c3cccnc3NCc3ccncc3)cc2)CCCC1 [Apatinib] + N=C(N)NC(=N)NCCc1ccccc1 [Phenformin] (partner 250 µM)
How it was run: as §1

Cell Line: NCI-H441
- relative viability (Metformin + Tozasertib; first compound 31.62 µM): 0.448
- relative viability (Metformin + Tozasertib; first compound 100 µM): 0.511
- relative viability (Metformin + Tozasertib; first compound 316.23 µM): 0.438
- relative viability (Metformin + Tozasertib; first compound 1000 µM): 0.587
- relative viability (Metformin + AZD7762; first compound 31.62 µM): 0.7
- relative viability (Metformin + AZD7762; first compound 100 µM): 1.05
- relative viability (Metformin + AZD7762; first compound 316.23 µM): 0.982
- relative viability (Metformin + AZD7762; first compound 1000 µM): 1.06
- relative viability (Metformin + Pemetrexed; first compound 31.62 µM): 0.255
- relative viability (Metformin + Pemetrexed; first compound 100 µM): 0.292
- relative viability (Metformin + Pemetrexed; first compound 316.23 µM): 0.266
- relative viability (Metformin + Pemetrexed; first compound 1000 µM): 0.264
- relative viability (Apatinib + Phenformin; first compound 0.08 µM): 0.849
- relative viability (Apatinib + Phenformin; first compound 0.253 µM): 0.762
- relative viability (Apatinib + Phenformin; first compound 0.8 µM): 0.827
- relative viability (Apatinib + Phenformin; first compound 2.53 µM): 0.784
- relative viability (Apatinib + Phenformin; first compound 8 µM): 0.76

Cell Line: NCI-H1651
- relative viability (Metformin + Tozasertib; first compound 10 µM): 0.751
- relative viability (Metformin + Tozasertib; first compound 31.62 µM): 0.847
- relative viability (Metformin + Tozasertib; first compound 100 µM): 0.86
- relative viability (Metformin + Tozasertib; first compound 316.23 µM): 0.728
- relative viability (Metformin + Tozasertib; first compound 1000 µM): 0.976
- relative viability (Metformin + AZD7762; first compound 10 µM): 0.467
- relative viability (Metformin + AZD7762; first compound 31.62 µM): 0.519
- relative viability (Metformin + AZD7762; first compound 100 µM): 0.495
- relative viability (Metformin + AZD7762; first compound 316.23 µM): 0.473
- relative viability (Metformin + AZD7762; first compound 1000 µM): 0.587
- relative viability (Metformin + Pemetrexed; first compound 10 µM): 0.445
- relative viability (Metformin + Pemetrexed; first compound 31.62 µM): 0.62
- relative viability (Metformin + Pemetrexed; first compound 100 µM): 0.608
- relative viability (Metformin + Pemetrexed; first compound 316.23 µM): 0.53
- relative viability (Metformin + Pemetrexed; first compound 1000 µM): 0.599
- relative viability (Apatinib + Phenformin; first compound 0.08 µM): 0.319
- relative viability (Apatinib + Phenformin; first compound 0.253 µM): 0.322
- relative viability (Apatinib + Phenformin; first compound 0.8 µM): 0.309
- relative viability (Apatinib + Phenformin; first compound 2.53 µM): 0.288
- relative viability (Apatinib + Phenformin; first compound 8 µM): 0.316

Cell Line: NCI-H1944
- relative viability (Metformin + Tozasertib; first compound 10 µM): 0.314
- relative viability (Metformin + Tozasertib; first compound 31.62 µM): 0.279
- relative viability (Metformin + Tozasertib; first compound 100 µM): 0.288
- relative viability (Metformin + Tozasertib; first compound 316.23 µM): 0.245
- relative viability (Metformin + Tozasertib; first compound 1000 µM): 0.297
- relative viability (Metformin + AZD7762; first compound 10 µM): 0.406
- relative viability (Metformin + AZD7762; first compound 31.62 µM): 0.586
- relative viability (Metformin + AZD7762; first compound 100 µM): 0.48
- relative viability (Metformin + AZD7762; first compound 316.23 µM): 0.626
- relative viability (Metformin + AZD7762; first compound 1000 µM): 0.527
- relative viability (Metformin + Pemetrexed; first compound 10 µM): 0.505
- relative viability (Metformin + Pemetrexed; first compound 31.62 µM): 0.75
- relative viability (Metformin + Pemetrexed; first compound 100 µM): 0.625
- relative viability (Metformin + Pemetrexed; first compound 316.23 µM): 0.687
- relative viability (Metformin + Pemetrexed; first compound 1000 µM): 0.576
- relative viability (Apatinib + Phenformin; first compound 0.08 µM): 0.209
- relative viability (Apatinib + Phenformin; first compound 0.253 µM): 0.207
- relative viability (Apatinib + Phenformin; first compound 0.8 µM): 0.179
- relative viability (Apatinib + Phenformin; first compound 2.53 µM): 0.18
- relative viability (Apatinib + Phenformin; first compound 8 µM): 0.159
